Where two headings read alike, the source gives them in different places.
How the values were obtained:
[1] = molecular target: human PDE2A1 (Homo sapiens (Human), UniProt O00408); test: IMAP FP PDE selectivity panel, human PDE2A1; assay type: biochemical
Summary of the method: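 IMAP FP format: substrate 50 nM FAM-cAMP plus 1000 nM cGMP, enzyme (insect-cell GST-tagged human PDE2A1) at ~20% conversion, 60 min reaction at room temperature. Apparent inhibition constants calculated from parallel/perpendicular fluorescence with KM 10,000 nM.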

[2] = molecular target: Rhesus PDE2A3 (Macaca mulatta, UniProt B3VTJ2); test: PDE2 fluorescence polarization (IMAP FP) inhibition assay, rhesus enzyme; assay type: biochemical, rhesus macaque
Summary of the method: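 IMAP FP (mP from parallel and perpendicular fluorescence against substrate-only control) was read ≥1 h after adding binding reagent. The preceding 60 min room-temperature reaction contained FAM-cAMP (50 nM) and cGMP (1 uM) in pH 7.2 Tris buffer with MgCl2 and DTT. Enzyme was supernatant of sonicated AD293 cells expressing rhesus PDE2A3; compounds were 3-fold titrated, DMSO 1% final.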

[3] = Human PDE2, Lab A, read-out: Human PDE2 Ki (nM) - Lab A
[4] = Rhesus PDE2, Lab A, read-out: Rhesus PDE2 Ki (nM) - Lab A
[5] = Human PDE2, Lab B, read-out: Human PDE2 Ki (nM) - Lab B

Rhesus PDE2A3, sequence (B3VTJ2 1-941): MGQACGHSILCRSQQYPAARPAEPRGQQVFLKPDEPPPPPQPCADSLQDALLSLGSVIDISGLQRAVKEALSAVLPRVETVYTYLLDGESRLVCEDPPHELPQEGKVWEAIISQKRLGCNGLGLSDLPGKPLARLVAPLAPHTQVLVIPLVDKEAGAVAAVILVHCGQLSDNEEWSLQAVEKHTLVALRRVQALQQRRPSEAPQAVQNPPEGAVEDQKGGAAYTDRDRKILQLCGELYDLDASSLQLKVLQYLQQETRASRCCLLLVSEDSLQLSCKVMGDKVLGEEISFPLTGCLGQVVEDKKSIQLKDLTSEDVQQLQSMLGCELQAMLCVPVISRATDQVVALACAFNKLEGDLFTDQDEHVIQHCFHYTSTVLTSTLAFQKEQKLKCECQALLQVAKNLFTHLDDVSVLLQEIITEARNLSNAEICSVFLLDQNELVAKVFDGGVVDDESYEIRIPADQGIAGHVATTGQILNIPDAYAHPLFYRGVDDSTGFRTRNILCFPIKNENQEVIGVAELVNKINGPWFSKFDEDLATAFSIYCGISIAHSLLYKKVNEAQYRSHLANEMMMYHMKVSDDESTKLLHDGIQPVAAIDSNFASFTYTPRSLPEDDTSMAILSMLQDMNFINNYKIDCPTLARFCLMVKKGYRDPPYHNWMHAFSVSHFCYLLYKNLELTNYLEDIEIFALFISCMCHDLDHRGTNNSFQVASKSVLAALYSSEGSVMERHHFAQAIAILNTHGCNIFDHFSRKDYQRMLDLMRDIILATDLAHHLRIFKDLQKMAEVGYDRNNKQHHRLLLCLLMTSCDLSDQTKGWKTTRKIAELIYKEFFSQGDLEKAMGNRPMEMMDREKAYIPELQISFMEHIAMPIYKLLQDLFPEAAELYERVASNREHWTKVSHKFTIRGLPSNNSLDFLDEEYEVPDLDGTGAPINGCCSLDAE
human PDE2A1, sequence (O00408 other isoform, or with tags, fused parts or gaps): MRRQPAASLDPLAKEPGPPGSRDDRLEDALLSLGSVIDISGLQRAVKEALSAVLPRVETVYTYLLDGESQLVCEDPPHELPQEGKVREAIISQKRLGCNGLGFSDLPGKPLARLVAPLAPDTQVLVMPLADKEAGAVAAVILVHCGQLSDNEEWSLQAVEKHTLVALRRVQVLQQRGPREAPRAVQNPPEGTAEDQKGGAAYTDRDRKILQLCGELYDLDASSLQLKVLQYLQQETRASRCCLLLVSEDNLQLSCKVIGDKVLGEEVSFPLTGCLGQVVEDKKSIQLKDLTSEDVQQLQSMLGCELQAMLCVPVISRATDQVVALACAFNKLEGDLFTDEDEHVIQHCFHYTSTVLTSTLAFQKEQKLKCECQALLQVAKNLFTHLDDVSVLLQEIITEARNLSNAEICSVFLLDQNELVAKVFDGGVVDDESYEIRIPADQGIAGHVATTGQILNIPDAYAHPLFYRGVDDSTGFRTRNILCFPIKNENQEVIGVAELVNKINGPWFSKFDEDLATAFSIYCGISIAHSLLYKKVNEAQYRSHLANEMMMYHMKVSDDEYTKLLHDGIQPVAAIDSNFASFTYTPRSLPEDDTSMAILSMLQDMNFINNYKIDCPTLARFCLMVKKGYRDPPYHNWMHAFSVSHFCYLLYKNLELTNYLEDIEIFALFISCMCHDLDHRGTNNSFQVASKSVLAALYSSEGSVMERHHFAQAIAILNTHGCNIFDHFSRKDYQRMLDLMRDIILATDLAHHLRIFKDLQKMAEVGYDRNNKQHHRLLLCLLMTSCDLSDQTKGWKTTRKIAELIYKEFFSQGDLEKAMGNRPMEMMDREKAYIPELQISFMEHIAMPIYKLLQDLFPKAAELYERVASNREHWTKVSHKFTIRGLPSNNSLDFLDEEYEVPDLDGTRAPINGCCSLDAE

Ki [1, 3] | Ki [2, 4] | Ki [1, 5] | Ki ([2]; Rhesus PDE2, Lab B, read-out: Rhesus PDE2 Ki (nM) - Lab B) | SMILES
20 nM | 21 nM | – | – | C[C@@H](NC(=O)c1cc(=O)[nH]c(Cc2ccccc2)n1)c1ccc(C(F)(F)F)cc1 [Example 133, 2-benzyl-6-oxo-N-{(1R)-1-[4-(trifluoromethyl)phenyl]ethyl}-1,6-dihydropyrimidine-4-carboxamide]
43 nM | 54 nM | 38 nM | – | CCc1nc(C(=O)N[C@H](C)c2ccc(C(F)(F)F)cc2)cc(=O)[nH]1 [Example 134, 2-ethyl-6-oxo-N-{(1R)-1-[4-(trifluoromethyl)phenyl]ethyl}-1,6-dihydropyrimidine-4-carboxamide]
1140 nM | 1650 nM | – | – | CCc1nc(C(=O)N[C@@H](C)c2ccc(C(F)(F)F)cc2)cc(=O)[nH]1 [Example 135, 2-ethyl-6-oxo-N-{(1S)-1-[4-(trifluoromethyl)phenyl]ethyl}-1,6-dihydropyrimidine-4-carboxamide]
2.2 nM | 6.3 nM | – | – | COc1ccc(Cc2nc(C(=O)N[C@H](C)c3ccc(C(F)(F)F)cc3)cc(=O)[nH]2)cc1 [Example 136, 2-(4-methoxybenzyl)-6-oxo-N-{(1R)-1-[4-(trifluoromethyl)phenyl]ethyl}-1,6-dihydropyrimidine-4-carboxamide]
231 nM | 411 nM | – | – | CC(C)c1nc(C(=O)N[C@H](C)c2ccc(C(F)(F)F)cc2)cc(=O)[nH]1 [Example 137, 2-(1-methylethyl)-6-oxo-N-{(1R)-1-[4-(trifluoromethyl)phenyl]ethyl}-1,6-dihydropyrimidine-4-carboxamide]
69 nM | 76 nM | – | – | C[C@@H](NC(=O)c1cc(=O)[nH]c(-c2cccc(F)c2)n1)c1ccc(C(F)(F)F)cc1 [Example 138, 2-(3-fluorophenyl)-6-oxo-N-{(1R)-1-[4-(trifluoromethyl)phenyl]ethyl}-1,6-dihydropyrimidine-4-carboxamide]
144 nM | 138 nM | – | – | C[C@@H](NC(=O)c1cc(=O)[nH]c(-c2ccc(F)c(F)c2)n1)c1ccc(C(F)(F)F)cc1 [Example 139, 2-(3,4-difluorophenyl)-6-oxo-N-{(1R)-1-[4-(trifluoromethyl)phenyl]ethyl}-1,6-dihydropyrimidine-4-carboxamide]
5.1 nM | 6.5 nM | – | – | COc1cccc(Cc2nc(C(=O)N[C@H](C)c3ccc(C(F)(F)F)cc3)cc(=O)[nH]2)c1 [Example 140, 2-(3-methoxybenzyl)-6-oxo-N-{(1R)-1-[4-(trifluoromethyl)phenyl]ethyl}-1,6-dihydropyrimidine-4-carboxamide]
110 nM | 136 nM | – | – | Cc1ccccc1-c1nc(C(=O)N[C@H](C)c2ccc(C(F)(F)F)cc2)cc(=O)[nH]1 [Example 141, 2-(2-methylphenyl)-6-oxo-N-{(1R)-1-[4-(trifluoromethyl)phenyl]ethyl}-1,6-dihydropyrimidine-4-carboxamide]
1.5 nM | 1.4 nM | – | – | C[C@@H](NC(=O)c1cc(=O)[nH]c(-c2ccccc2)n1)c1ccc(SC(F)(F)F)cc1 [Example 142, 6-Oxo-2-phenyl-N-[(1R)-1-{4-[(trifluoromethyl)sulfanyl]phenyl}ethyl]-1,6-dihydropyrimidine-4-carboxamide]
11 nM | 21 nM | – | – | O=C(NC1(c2ccc(C(F)(F)F)cc2)CCC1)c1cc(=O)[nH]c(C2CC2)n1 [Example 143, 2-cyclopropyl-6-oxo-N-{1-[4-(trifluoromethyl)phenyl]cyclobutyl}-1,6-dihydropyrimidine-4-carboxamide]
6 nM | 16 nM | – | – | C[C@@H](NC(=O)c1cc(=O)[nH]c(C2CC2)n1)c1ccc(-c2ccccc2)cc1 [Example 144, N-[(1R)-1-biphenyl-4-ylethyl]-2-cyclopropyl-6-oxo-1,6-dihydropyrimidine-4-carboxamide]
2.3 nM | 2.9 nM | – | – | O=C(NC1(c2ccc(C(F)(F)F)c(F)c2)CC1)c1cc(=O)[nH]c(-c2ccccc2)n1 [Example 145, N-{1-[3-fluoro-4-(trifluoromethyl)phenyl]cyclopropyl}-6-oxo-2-phenyl-1,6-dihydropyrimidine-4-carboxamide]
7.1 nM | 9.3 nM | – | – | CC(C)c1ccc([C@@H](C)NC(=O)c2cc(=O)[nH]c(-c3ccccc3)n2)cc1 [Example 146, N-{(1R)-1-[4-(1-methylethyl)phenyl]ethyl}-6-oxo-2-phenyl-1,6-dihydropyrimidine-4-carboxamide]
35 nM | 51 nM | – | – | CC(NC(=O)c1cc(=O)[nH]c(-c2ccccc2)n1)c1ccc(C(F)(F)F)cc1Cl (centres unmarked) [Example 147, N-{1-[2-chloro-4-(trifluoromethyl)phenyl]ethyl}-6-oxo-2-phenyl-1,6-dihydropyrimidine-4-carboxamide]
2.6 nM | 5.2 nM | – | – | C[C@@H](NC(=O)c1cc(=O)[nH]c(-c2ccccc2)n1)c1ccc(C(F)(F)F)c(F)c1 [Example 148, N-{(1R)-1-[3-fluoro-4-(trifluoromethyl)phenyl]ethyl}-6-oxo-2-phenyl-1,6-dihydropyrimidine-4-carboxamide]

Ki [1, 3] | Ki [2, 4] | Ki [1, 5] | Ki ([2]; Rhesus PDE2, Lab B, read-out: Rhesus PDE2 Ki (nM) - Lab B) | SMILES
117 nM | 204 nM | – | – | CC(NC(=O)c1cc(=O)[nH]c(-c2ccccc2)n1)c1ccc(C(F)(F)F)cn1 (centres unmarked) [Example 149, 6-oxo-2-phenyl-N-{1-[5-(trifluoromethyl)pyridin-2-yl]ethyl}-1,6-dihydropyrimidine-4-carboxamide]
15 nM | 29 nM | – | – | C[C@@H](NC(=O)c1cc(=O)[nH]c(-c2ccccc2)n1)c1ccc(C(F)(F)F)cc1F [Example 150, N-{(1R)-1-[2-fluoro-4-(trifluoromethyl)phenyl]ethyl}-6-oxo-2-phenyl-1,6-dihydropyrimidine-4-carboxamide]
3.2 nM | 3.3 nM | – | – | CC[C@@H](NC(=O)c1cc(=O)[nH]c(-c2ccccc2)n1)c1ccc(SC(F)(F)F)cc1 [Example 151, 6-oxo-2-phenyl-N-[(1R)-1-{4-[(trifluoromethyl)sulfanyl]phenyl}propyl]-1,6-dihydropyrimidine-4-carboxamide]
13 nM | 16 nM | – | – | C[C@@H](NC(=O)c1cc(=O)[nH]c(-c2ccccc2)n1)c1ccc(OC(F)(F)F)cc1F [Example 152]
1.5 nM | 2.6 nM | – | – | C[C@@H](NC(=O)c1cc(=O)[nH]c(-c2ccccc2)n1)c1ccc(OC(F)(F)F)c(F)c1 [Example 154, N-{(1R)-1-[3-fluoro-4-(trifluoromethoxy)phenyl]ethyl}-6-oxo-2-phenyl-1,6-dihydropyrimidine-4-carboxamide]
143 nM | 119 nM | – | – | COc1cc(C(C)NC(=O)c2cc(=O)[nH]c(-c3ccccc3)n2)ccc1C(F)(F)F (centres unmarked) [Example 155]
3.1 nM | 4.8 nM | – | – | O=C(NC1(c2ccc(OC(F)(F)F)c(F)c2)CC1)c1cc(=O)[nH]c(-c2ccccc2)n1 [Example 157, N-{1-[3-fluoro-4-(trifluoromethoxy)phenyl]cyclopropyl}-6-oxo-2-phenyl-1,6-dihydropyrimidine-4-carboxamide]
9 nM | 14 nM | – | – | CC(C)(NC(=O)c1cc(=O)[nH]c(-c2ccccc2)n1)c1ccc(C(F)(F)F)c(F)c1 [Example 158, N-{1-[3-fluoro-4-(trifluoromethyl)phenyl]-1-methylethyl}-6-oxo-2-phenyl-1,6-dihydropyrimidine-4-carboxamide]
4.9 nM | 7.6 nM | – | – | O=C(NC1(c2ccc(SC(F)(F)F)cc2)CC1)c1cc(=O)[nH]c(-c2ccccc2)n1 [Example 159, 6-oxo-2-phenyl-N-(1-{4-[(trifluoromethyl)sulfanyl]phenyl}cyclopropyl)-1,6-dihydropyrimidine-4-carboxamide]
60 nM | 88 nM | – | – | CC(C)(NC(=O)c1cc(=O)[nH]c(-c2ccccc2)n1)c1ccc(OC(F)(F)F)c(F)c1 [Example 161, N-{1-[3-fluoro-4-(trifluoromethoxy)phenyl]-1-methylethyl}-6-oxo-2-phenyl-1,6-dihydropyrimidine-4-carboxamide]
36 nM | 61 nM | – | – | CCC(NC(=O)c1cc(=O)[nH]c(-c2ccccc2)n1)c1ccc(C(C)(C)C)cc1 (centres unmarked) [Example 163, N-[1-(4-tert-butylphenyl)propyl]-6-oxo-2-phenyl-1,6-dihydropyrimidine-4-carboxamide]
9.4 nM | 9 nM | – | – | CC(NC(=O)c1cc(=O)[nH]c(-c2ccccc2)n1)c1ccc(C2CC2)cc1 (centres unmarked) [Example 164, N-[1-(4-cyclopropylphenyl)ethyl]-6-oxo-2-phenyl-1,6-dihydropyrimidine-4-carboxamide]
12 nM | 16 nM | – | – | CCc1ccc(C(C)NC(=O)c2cc(=O)[nH]c(-c3ccccc3)n2)cc1 (centres unmarked) [Example 165, N-[1-(4-ethylphenyl)ethyl]-6-oxo-2-phenyl-1,6-dihydropyrimidine-4-carboxamide]
2.1 nM | 3.3 nM | – | – | CC(C)[C@@H](NC(=O)c1cc(=O)[nH]c(-c2ccccc2)n1)c1ccc(OC(F)(F)F)cc1 [Example 166, N-{(1R)-2-methyl-1-[4-(trifluoromethoxy)phenyl]propyl}-6-oxo-2-phenyl-1,6-dihydropyrimidine-4-carboxamide]
1.9 nM | 2.3 nM | 2.3 nM | 3.5 nM | CC(C)[C@@H](NC(=O)c1cc(=O)[nH]c(-c2ccccc2)n1)c1ccc(C(F)(F)F)cc1 [Example 167, N-{(1R)-2-methyl-1-[4-(trifluoromethyl)phenyl]propyl}-6-oxo-2-phenyl-1,6-dihydropyrimidine-4-carboxamide]

Source: patent US9815796B2 (Merck Sharp & Dohme Corp., priority 2013, dated 2017)
